Source: patent publication US11759480B2, “Compositions and methods for CAR T cell therapy” (ENDOCYTE, INC., priority 2017, dated 2023)

Assays:
MDA-MB-231 = assay: Effect of Folate-FITC on CAR-T cell number and serum cytokines (Example 21); assay type: in vivo, NSG mice; settings: 500 nmole/kg, 10^7 CAR T cells, Day 6
Description: The triple negative human breast cancer cell line (i.e. MDA-MB-231) was subcutaneously implanted into the shoulders of immunodeficient (e.g. NSG) mice. When tumor volume reached around 50-100 mm^3, anti-FITC CAR T cells (10^7 cells) were intravenously introduced with either FITC-folate (500 nmole/kg) or PBS. To monitor CAR T cell proliferation and pro-inflammatory cytokine production, mice blood was collected at Day 6. CAR T cell proliferation was evaluated by staining a whole blood sample with anti-human CD3 antibody (Biolegned) and detecting GFP expression on the CD3 positive T cell population. Pro-inflammatory cytokine production was measured by a bead-based immunoassay (Legendplex kit from biolegend).

MDA-MB-231 tumors [1] = assay: Rescue ability of competitors during CAR T cell treatment (Example 23); assay type: in vivo, mice; settings: for time until mice looked normal / time until mice started to move and look for food / time until mice were active again: one i.v. dose 10 μmoles/kg at sCRS
Description: When severe cytokine release syndrome was observed, one dose of EC0923 (folate) or untethered fluorescein (both at 10 μmoles/kg) was introduced intravenously to rescue mice (FIG. 16). Mice with one dose of EC0923 or fluorescein started to move and look for food after 4 hours, were active again in 24 hours, and looked normal in 4 days. EC17 administration was then continued. Control mice without EC0923 or fluorescein didn't move after 4 hours, and had to be euthanized because of the sickness. […] All mice tested for cytokine production were injected with 8 million CAR-T cells.

MDA-MB-231 cells = assay: Control of CRS with bridge molecules in vivo (Example 43); design: species or system NSG mice
Description: Mice were maintained on folic acid-deficient diet (TD.95247, Envigo) in order to reduce the level of folic acid in mice to a physiological levels found in humans. Tumors were measured every other day with calipers, and tumor volume was calculated according to equation: Tumor volume=½(L×W^2) where L is the longest axis of the tumor and W is the axis perpendicular to L. Mouse blood was also collected to measure cytokine levels (e.g. IL-2, IL-6, IFNγ, and TNFα) using LEGENDplex bead-based immunoassay (Biolegend, CA) and systemic toxicity was monitored by measuring body weight loss. All animal care and use followed by National Institutes of Health (NIH) guidelines and all experimental protocols were approved by the Purdue Animal Care and Use Committee.

MDA-MB-231 tumors [2] = assay: Comparison of three rescue reagents (Example 32); settings: for order of sCRS severity (from worst to least): 10 hours after rescue, Leucovorin 10, folic acid 10, sodium fluorescein 260 umol/kg; for tumor outcome of rescued mice: single rescue dose, EC17 continued
Description: To evaluate whether mice with FITC-CAR-T therapy related sCRS can be rescued by using competitors which may displace EC17 from either FITC-CAR-T or FR+ tumor cells, 49 NSG mice bearing MDA-MB-231 tumors (150-250 mm3) were administered with excess FITC-CAR-T cells (8 million), 36 of them were then dosed with 500 nmol/kg EC17 48 hours post CAR-T administration, 6 of them were not dosed with EC17 and were used as “No EC17” control, and 7 of them were dosed with 260 umol/kg sodium fluorescein (no EC17 but Fluorescein) to test its toxicity. […] Each group was i.v. injected with 10 umol/kg of Leucovorin, or 10 umol/kg folic acid, or 260 umol/kg sodium fluorescein, or nothing as an un-rescued control. […] Mouse body weight changes were also monitored as the indication of toxicity. […] To evaluate whether the rescue injections affect the anti-tumor activity of FITC-CAR-T cells, these mice were dosed with 500 nmol/kg EC17 twice per week (days 9, 11, 15, 18, 22, 25, etc.) and the tumor size was monitored.

[3] = test system: anti-fluorescein scFv on CAR T cells; assay: Competitive binding assay against FITC-Alexa647 on CAR T cells; settings: 1 μM competing ligand versus FITC-Alexa647 10 nM
Description: To examine the ability of bridge molecules to bind anti-fluorescein scFv on CAR T cells, a competitive binding assay was developed. Measurement of the fluorescein signal from CAR T cell bound bridges could not be used due to the overlap of its fluorescence with that of the GFP expressing CAR T cells. For this purpose, FITC-Alexa647 (10 nM) was allowed to bind anti-fluorescein CAR T cells in the absence or presence of excess (1 μM) competing ligand (i.e. FITC-folate, FITC-DUPA, FITC-CA9) for 1 h at room temperature. After incubation, anti-fluorescein CAR T cells were washed 3× with PBS to remove unbounded FITC-Alexa647, and the washed cells were analyzed for Alexa647 fluorescence by flow cytometry.
Fluorescein-folate (FITC-folate) and fluorescein-PSMA (FITC-DUPA) were synthesized as previously described. To examine the ability of these bridge molecules to bind anti-fluorescein scFv on CAR T cells, a competitive binding assay had to be developed, because measurement of the fluorescein signal from CAR T cell bound bridge could not be used due to the overlap of its fluorescence with that of the GFP expressing CAR T cells. For this purpose, FITC-Alexa647 (10 nM) was allowed to bind anti-fluorescein CAR T cells in the absence or presence of excess (1 μM) competing ligand (i.e. FITC-folate) for 1 h at room temperature. After incubation, anti-fluorescein CAR T cells were washed 3× with PBS to remove unbounded FITC-Alexa647, and the washed cells were analyzed for Alexa647 fluorescence by flow cytometry. For analysis of FITC-folate to binding to folate receptor, FR positive KB cells were incubated with FITC-folate (100 nM) in the absence or presence of excess (10 μM) free folate (i.e. as a competitive ligand). After washing samples with PBS (3 times), samples were analyzed by flow cytometry for fluorescein-folate binding.

[4] = test system: PSMA+ MDA-MB-231 and CA9+ MDA-MB-231; assay: Two tumors treated with cocktail of bridge molecules in vivo (Example 42); design: species or system NSG mice; settings: only one of the bridges infused
Text: In order to evaluate whether a cocktail of bridge molecules can eliminate two tumors expressing orthogonal antigens, we established two different tumor models. As a first tumor model, each of PSMA+ MDA-MB-231 and CA9+ MDA-MB-231 were implanted into NSG mice at two different locations (i.e. right flank: CA9+ MDA-MB-231, left flank: PSMA+ MDA-MB-231). For the second tumor model, PSMA+ MDA-MB-231 and CA9+ MDA-MB-231 were pre-mixed at a 1:1 ratio and implanted at one location.
PSMA+ MDA-MB-231 and CA9+ MDA-MB-231 were implanted into NSG mice (Jackson Laboratory, ME) either at two different locations (i.e. right flank: PSMA+ MDA-MB-231, left flank: CA9+ MDA-MB-231) or one location after two tumor cells were pre-mixed (i.e. 50% of PSMA+ MDA-MB-231 and 50% of CA9+ MDA-MB-231). When tumors reached ˜100 mm3 in size, anti-fluorescein CAR T cells (8×10^6) were injected plus FITC-DUPA, FITC-CA9 or both. Tumors were measured every other day with calipers, and tumor volume was calculated according to the equation: Tumor volume=½(L×W2) where L is the longest axis of the tumor and W is the axis perpendicular to L. Results are shown in FIGS. 49A and 49B.

MDA-MB-231 tumors [5] = assay: CAR-T number in blood after rescue with EC0923 or fluoresceinamine (Example 31); assay type: in vivo, NSG mice; settings: for earliest time of increased CAR-T count in blood: 10 umol/kg i.v.; for CAR-T number in blood: 10 umol/kg i.v. at sCRS
Description: EC17/CAR-T therapy strategy is controllable through bridge displacement by either free folate or free fluorescein. […] Mice from three groups were then euthanized at 8, 12, 24 and 48 hours post injection of EC0923 or fluoresceinamine, and their blood samples were analyzed for CAR-T cell number and cytokine levels. CAR-T cells in blood were stained with anti-human CD45 antibody labeled with APCeF780 (Biolegend) and counted by FACS. CountBright™ Absolute Counting Beads (ThermoFisher Scientific) were mixed into the samples and used as a reference for cell counting.

[6] = test system: MDA-MB-231 solid tumor xenografts; assay type: in vivo
Description: MDA-MB-231 cells were subcutaneously injected into the shoulders of NSG mice (Jackson Laboratory) to establish solid tumor xenografts. When tumor volume reached around 50-100 mm^3, anti-FITC CAR T cells (15×10^6 cells) were intravenously introduced into tumor-bearing mice. Twenty NSG mice were divided into four study groups (5 animals in each group). The first group was treated with anti-FITC CAR T cells with phosphate-buffered saline (PBS) as a negative control. The second, third, and fourth groups were treated with anti-FITC CAR T cells with FITC-Folate (500 nmole/kg) every other day. Once a significant toxicity (e.g. serious loss of body weight) was detected, these groups were treated with either: continued FITC-Folate administration (second group); discontinuation of FITC-Folate administration until the mice recovered (third group); or a mixture of 100-fold excess of EC0923 (i.e. free folate) and FITC-Folate until the mice recovered (fourth group). The body weight was measured regularly to monitor toxicity. In addition, the blood concentration of interferon (IFN)-gamma for each treatment group was measured to monitor the degree of anti-FITC CAR T activation. Finally, tumor volume was measured to identify anti-tumor efficacy in each treatment group.

[7] = test system: severe cytokine release syndrome in mice bearing tumors; assay: Rescue ability of EC0923 during CAR T cell treatment (Example 18); assay type: in vivo
Description: CAR T cells were introduced into mice bearing tumors and EC17 was also introduced (i.v.) three times per week. When severe cytokine release syndrome was observed, one dose of EC0923 at 10 μmoles/kg was introduced to rescue mice. Mice were monitored for 4 more days, and some were euthanized to evaluate organs. Mice with one dose of EC0923 started to move and look for food after 4 hours, and their spleens and livers were red. Control mice without EC0923 didn't move after 6 hours, and their spleens and livers were pale. Mice with EC0923 treatment were active again in 24 hours and expected to survive, and were put back to a normal EC17 dosing schedule. Control mice without EC0923 started to move a little in 24 hours, but had to be euthanized to prevent animal suffering. Mice with EC0923 looked normal in 4 days. One of the mice was euthanized and found to have normal colored spleen and liver. […] Other remaining mice with EC0923 were given routine EC17 dosing three times per week, and their tumors disappeared in 4 weeks.

[8] = test system: MDA-MB-231 solid tumor xenografts; assay: Control of CAR T cell activation in vivo: break, FA competitor or both (Example 19)
Description: Five study groups were designed to test whether anti-FITC CAR T cell activation can be controlled via temporal termination of FITC-ligands, by administering a competitor small molecule, or a combination approach of both discontinuing of FITC-ligands and/or administering an FA competitor. The first group was treated by administering anti-FITC CAR T cell with phosphate-buffered saline (PBS) as a negative control. Every other day over the course of the study, the second, third, fourth and fifth groups were treated with anti-FITC CAR T cell mixed with FITC-Folate (500 nmole/kg). […] Mouse bodyweight was measured regularly to test for toxicity.

[9] = within 3 hours, 6 μmole/kg free fluorescein
[10] = 100-fold excess on days 4 and 6

## FITC-Folate [EC17]
MDA-MB-231
  anti-FITC CAR T cell proliferation in blood: proliferated significantly
  pro-inflammatory cytokines (IL-2, TNF-α, IFN-γ): significantly produced

## O=C1OC2(c3ccc(O)cc3Oc3cc(O)ccc32)c2ccccc21 [fluorescein, reference compound]
MDA-MB-231 tumors [1]
  time until mice looked normal: 4 days
  time until mice started to move and look for food: 4 h
  time until mice were active again: 24 h
MDA-MB-231 cells; post fluorescein injection
  time to decrement of plasma IFNγ: 6 h
MDA-MB-231 cells; [9]
  decrease of plasma IL-2: > 50%
  decrease of plasma IL-6: > 50%
  decrease of plasma TNF-α: > 50%

## Nc1nc2ncc(CNc3ccc(C(=O)N[C@@H](CCC(=O)O)C(=O)O)cc3)nc2c(=O)[nH]1 [folic acid, reference compound]
MDA-MB-231 cells; [10]
  IFNγ level: reduced the level of IFNγ
  body weight: rapidly prevented the continuous weight loss
  therapeutic potency of CAR T cell therapy: enhanced the therapeutic potency
MDA-MB-231 tumors [2]
  order of sCRS severity (from worst to least): no rescue group>leucovorin rescue group>folic acid rescue group>sodium fluorescein rescue group>no EC17 group
  tumor outcome of rescued mice: complete response

## O=C(O)CC[C@H](NC(=O)N[C@@H](CCC(=O)NCCCCCCCC(=O)N[C@@H](Cc1ccccc1)C(=O)N[C@@H](Cc1ccccc1)C(=O)NCCNC(=S)Nc1ccc(-c2c3ccc(=O)cc-3oc3cc(O)ccc23)c(C(=O)O)c1)C(=O)O)C(=O)O [FITC-DUPA]
[3]
  binding to CAR-expressing T cells: able to bind to the CAR-expressing T cells
[4]
  growth of tumor expressing unmatched antigen: continuously grew

## Nc1ccc2c(c1)C(=O)OC21c2ccc(O)cc2Oc2cc(O)ccc21 [fluoresceinamine]
MDA-MB-231 tumors [5]; 10 umol/kg
  CAR-T displacement compared with EC0923: more CAR-T displacement than folate
MDA-MB-231 tumors [5]
  earliest time of increased CAR-T count in blood: 6 h
  CAR-T number in blood: increase of CAR-T number in blood circulation

## Nc1nc2ncc(CNc3ccc(C(=O)N[C@@H](CCCN[C@H](CC(=O)O)C(=O)N[C@H](CC(=O)O)C(=O)O)C(=O)O)cc3)nc2c(=O)[nH]1 [EC0923]
[6]; competitor group (100-fold excess EC0923 + FITC-Folate)
  complete response: 75%
[7]; one dose 10 μmoles/kg at sCRS
  time until mice looked normal: 4 days
  time until mice started to move and look for food: 4 h
  time until mice were active again: 24 h
[7]; rescued mice, routine EC17 dosing three times per week resumed
  time until tumors disappeared: 4 weeks
MDA-MB-231 tumors [1]
  time until mice looked normal: 4 days
  time until mice started to move and look for food: 4 h
  time until mice were active again: 24 h
MDA-MB-231 tumors [1]; rescue treatment, EC17 continued
  tumor outcome four weeks later: tumors were eliminated
MDA-MB-231 tumors [5]
  earliest time of increased CAR-T count in blood: 6 h
  CAR-T number in blood: increase of CAR-T number in blood circulation

## Nc1nc2c(c(=O)[nH]1)N(C=O)C(CNc1ccc(C(=O)N[C@@H](CCC(=O)O)C(=O)O)cc1)CN2 (some centres unmarked) [Leucovorin]
MDA-MB-231 tumors [2]
  order of sCRS severity (from worst to least): no rescue group>leucovorin rescue group>folic acid rescue group>sodium fluorescein rescue group>no EC17 group
  tumor outcome of rescued mice: complete response

## Nc1nc(=O)c2nc(CNc3ccc(C(=O)N[C@@H](CCC(=O)O)C(=O)O)cc3)cnc2[nH]1 [EC0923]
[6]; competitor group
  IFN-gamma blood concentration: decreased
[6]; competitor group: 100-fold excess of free folate mixed with FITC-Folate at day 4 and day 6
  survival of mice at the first week of treatment: all of the mice in both the break and competitor groups survived
[8]; 100-fold excess with FITC-Folate (FITC-Folate+FA Competitor)
  control of CAR T cell mediated toxicity: able to control the degree of CAR T cell activation to alleviate CAR T cell mediated toxicity
[8]; termination of FITC-Folate plus excess free folic acid (Break+FA Competitor)
  control of CAR T cell mediated toxicity: better efficacy in decreasing CAR T cell mediated toxicity compared to each approach alone

## FITC-PEG2-CA9 [FITC-CA9]
[3]
  binding to CAR-expressing T cells: able to bind to the CAR-expressing T cells
[4]
  growth of tumor expressing unmatched antigen: continuously grew
